The values that follow come from patent US20200061007A1, “CANCER STEM CELL PROLIFERATION INHIBITOR” (NATIONAL INSTITUTE OF ADVANCED INDUSTRIAL SCIENCE AND …, priority 2014, published 2020).

Series [1] has as its system human breast cancer cell line MCF-7. The series can be described thus: Tumor volume, MCF-7/nude mice. Type of series: in vivo. The method, then:
A tumor piece of a human breast cancer cell line MCF-7 containing cells positive for cancer stem cell markers was subcutaneously transplanted to the dorsal part of each of 6-week-old female BALB/cAJc1-nu nude mice (5 mice/group) using a trocar needle. At the time when the tumor volume reached 100 to 200 mm^3, the administration was started. Am80 was orally administered once a day at a dose of 1 mg/kg for 21 continuous days, and DXL was intravenously administered at a dose of 3.5 mg/kg from Day 1, 3 times at intervals of 4 days. In the combination group, the agents were administered at the same doses as, and by the same administration methods as, those in the cases of administration of each single agent. Measurement of the tumor diameter was carried out until the next day of the completion of the administration (Day 22). The longitudinal diameter and the transverse diameter of the tumor were measured using a caliper, and the tumor volume (mm^3) was determined according to the following formula: longitudinal diameter×transverse diameter^2/2. In the control group, physiological saline was intraperitoneally administered from Day 1, 3 times at intervals of 4 days.

Series [2] concerns Human pancreatic cancer cells. The experiment in a line: Sphere formation of gemcitabine-treated pancreatic cancer cells (colony count). Conditions: cells cultured with gemcitabine (10 nM) 1 week, then Am80 1 week. Type of series: cell-based. As for the experimental part: Human pancreatic cancer cells were cultured in the suspension-culture state in the presence of gemcitabine (10 nM) for 1 week. Thereafter, Am80 was added to the culture, and suspension culture was carried out for 1 week, followed by counting the number of colonies formed.

The test system of series [3] is Human Pancreatic Cancer Stem Cells Transplanted to Nude Mice. The experiment in a line: Ratio of pancreatic cancer stem cells in removed tumor (anti-CD133 flow cytometry). Type of series: in vivo. To be noted: Am80 3 mg/kg/day for 1 month, vs control. The method, then:
Pancreatic cancer cells (1×10^6 cells) containing pancreatic cancer stem cells were subcutaneously transplanted to nude mice. Mice in which tumor formation was found 2 weeks later were subjected to administration of Am80 for 1 month at 3 mg/kg/day. Thereafter, the tumor was removed, and the tumor cells were treated by trypsin, followed by measuring the ratio of pancreatic cancer stem cells by flow cytometry using an anti-CD133 antibody.

Series [4] deals with Human Leukemia Cell Line Kasumi-1. The series can be described thus: Growth inhibition of Kasumi-1, isobologram. Type of series: cell-based. To be noted: Homo sapiens; Kasumi-1, RPMI1640 with 20% FBS. As for the experimental part: A human leukemia cell line Kasummi-1, containing cells positive for cancer stem cell markers, was cultured in RPMI1640 medium supplemented with 20% FBS, and the growth inhibitory action by the combination of Am80 and 5-AZ was studied using Isobologram. […] These concentrations were taken as 1.0, and the points corresponding to 1.0 in the two axes were connected to each other via a straight line. In cases where the ratio observed for the combination effect is on the line, the effect is additive, and, in cases where the ratio is below the line, the effect is synergistic.

For series [5], the system named is Human Pancreatic Cancer Cell Panc-1 Spheroids. The experiment in a line: CD24+/CD44+/ESA+ cells by flow cytometry in Panc-1 spheroids. Type of series: cell-based. From the text:
Pancreatic cancer cells prepared by performing suspension culture in the presence of Am80 for 1 week was subjected to analysis of expression of cancer stem cell surface markers at the protein level by flow cytometry using fluorescence-labeled primary antibodies.
For orientation: Flow cytometry measures light scatter and fluorescence of single cells or particles in a stream.

The test system of series [6] is CD133-positive human pancreatic cancer stem cells. The experiment in a line: Cell migration in Boyden chambers. Type of series: cell-based. Conditions: Am80 1 μM, CD133-positive fraction. The method, then:
Pancreatic cancer cells containing pancreatic cancer stem cells were separated into CD133-positive cells and negative cells using magnetic antibody beads, and Am80 was added at 1 μM to the fractions, followed by culturing the cells in Boyden chambers and then observing the cells migrated into the back side of the membrane.

The subject of series [7] is Human Pancreatic Cancer Cell Panc-1 Spheroids. The experiment in a line: ALDH activity (ALDEFLUOR, flow cytometry) in Panc-1 spheroids. Type of series: cell-based. Conditions: suspension culture with Am80 for 1 week. The method, then: As shown in Example 1, Am80 suppresses formation of cell clusters of the pancreatic cancer cell line in the suspension-culture state, and this might be due to a decrease in the number of the stem cells that act as the seeds of the cell clusters. It is known that the activity of aldehyde dehydrogenase (ALDH) is high in hematopoietic stem cells and progenitor cells, but low in differentiated cells. In view of this, a precursor Bodipy-aminoacetaldehyde (ALDEFLUOR, Stem Cell Technologies) was added to pancreatic cancer cells prepared by performing suspension culture in the presence of Am80 for 1 week, and the number of cells positive for the fluorescence of Bodipy-aminoacetate produced by metabolism by the aldehyde dehydrogenase activity was analyzed by quantification by flow cytometry.

Series [8] deals with human pancreatic cancer cell line Panc-1 cell clusters. The series can be described thus: Growth of human pancreatic cancer cell spheroids in suspension culture. Type of series: cell-based. The method, then: Culturing of a human pancreatic cancer cell line in DMEM/F12 medium supplemented with B27, 20 ng/mL EGF, 20 ng/mL bFGF, and 4 μg/mL heparin using a low-adhesion dish allows formation of cell clusters, and the cells can be cultured in a suspended state. Under these conditions, the cells can be cultured such that they show increased levels of several cancer stem cell markers as well as markers reported for other cancers. First, the cell clusters containing the cells positive for the cancer stem cell markers were cultured in a medium supplemented with Am80 for 1 week, and the influences of Am80 on the growth of cell clusters and the expression levels of the cancer stem cell markers were analyzed.

A short description of series [9]: Body weight of tumor-bearing nude mice. To be noted: Am80 3 mg/kg/day for 1 month. Type of series: in vivo. As for the experimental part:
(§1) Pancreatic cancer cells (1×10^6 cells) containing pancreatic cancer stem cells were subcutaneously transplanted to nude mice. Mice in which tumor formation was found 2 weeks later were subjected to administration of Am80 for 1 month at 3 mg/kg/day.

For series [10], the system named is human pancreatic cancer cells containing pancreatic cancer stem cells. The experiment in a line: Growth of subcutaneously transplanted pancreatic cancer in nude mice. Type of series: in vivo. Conditions: Am80 3 mg/kg/day for 1 month, vs control. The method, then:
as §1
Pancreatic cancer cells (1×10^6 cells) containing pancreatic cancer stem cells were subcutaneously transplanted to nude mice. Mice in which tumor formation was found 2 weeks later were subjected to daily administration of Am80 at 3 mg/kg/day and administration of gemcitabine at 50 mg/kg at intervals of 3 days for 1 month. […] Gem herein represents gemcitabine.
Pancreatic cancer cells (1×10^6 cells) containing pancreatic cancer stem cells were subcutaneously transplanted to nude mice. Mice in which tumor formation was found 2 weeks later were subjected to daily administration of Am80 at 3 mg/kg/day and administration of VPA at 500 mg/kg at intervals of 3 days for 1 month.

Setting [11] is: suspension culture with Am80 for 1 week.

The term IC50 denotes the concentration at which inhibition is half-maximal. Regarding `CC1(C)CCC(C)(C)c2cc(NC(=O)c3ccc(C(=O)O)cc3)ccc21` [Am80, tamibarotene], in series [1] (Am80 1 mg/kg oral daily 21 days, DXL 3.5 mg/kg i.v. 3 times at intervals of 4 days, Day 1), the “tumor volume Day 1” value turned out to be 155.3 mm^3. The “tumor volume Day 5” value in [1] (Am80 1 mg/kg oral daily, DXL 3.5 mg/kg i.v., Day 5) is reported as 151.3 mm^3. The “tumor volume Day 9” value in series [1] (Am80 1 mg/kg oral daily, DXL 3.5 mg/kg i.v., Day 9) is given as 155.5 mm^3. The “tumor volume Day 13” value in series [1] (Am80 1 mg/kg oral daily, DXL 3.5 mg/kg i.v., Day 13) was 208.9 mm^3. Besides, in series [1] (Am80 1 mg/kg oral daily, DXL 3.5 mg/kg i.v., Day 17), the “tumor volume Day 17” value was found to be 229.4 mm^3. Further, the “tumor volume Day 22” value in series [1] (Am80 1 mg/kg oral daily, DXL 3.5 mg/kg i.v., Day 22) is 261.4 mm^3. The “sphere formation (number of colonies formed)” value in series [2] is on record as “in vitro inhibitory effect on sphere formation”. Besides, the “ratio of pancreatic cancer stem cells (CD133) in tumor” value in series [3] is listed as “action to suppress pancreatic cancer stem cells in vivo”. In series [4], the IC50 was 1000 nM. The “abundance of cells positive for CD24+/CD44+/ESA+” value in series [5] (10 μM Am80, suspension culture 1 week) is on record as “reduced by half”; in [5] (addition of Am80, suspension culture 1 week), “significantly decreased”. Also, the cell migration ability result in series [6] is “remarkable suppression”. For the same compound, the “ALDH activity (ALDH-positive cells)” value in [7] is reported as “concentration-dependent decrease”. In series [8] (cultured for a total of 2 weeks in Am80-containing medium), the “sizes of the cell clusters” value is on record as “further decreased”. In addition, the “growth of the cell clusters” value in [8] (setting [11]) is reported as “suppressed dependently on the concentration”. Moreover, the number of cells result in series [8] (setting [11]) is given as “decreased dependently on the concentration”. In [9], the body weight result was “not influenced”. Besides, in series [10], the “growth of the pancreatic cancer” value was “could be suppressed in vivo compared to the control”.
